The source of these data is US20050222200A1, “AMIDE DERIVATIVES AS ION CHANNEL LIGANDS AND PHARMACEUTICAL COMPOSITIONS AND METHODS OF USING THE SAME” (Renovis, Inc., priority 2003, published 2005).

T1 sequence (O35433 whole entry): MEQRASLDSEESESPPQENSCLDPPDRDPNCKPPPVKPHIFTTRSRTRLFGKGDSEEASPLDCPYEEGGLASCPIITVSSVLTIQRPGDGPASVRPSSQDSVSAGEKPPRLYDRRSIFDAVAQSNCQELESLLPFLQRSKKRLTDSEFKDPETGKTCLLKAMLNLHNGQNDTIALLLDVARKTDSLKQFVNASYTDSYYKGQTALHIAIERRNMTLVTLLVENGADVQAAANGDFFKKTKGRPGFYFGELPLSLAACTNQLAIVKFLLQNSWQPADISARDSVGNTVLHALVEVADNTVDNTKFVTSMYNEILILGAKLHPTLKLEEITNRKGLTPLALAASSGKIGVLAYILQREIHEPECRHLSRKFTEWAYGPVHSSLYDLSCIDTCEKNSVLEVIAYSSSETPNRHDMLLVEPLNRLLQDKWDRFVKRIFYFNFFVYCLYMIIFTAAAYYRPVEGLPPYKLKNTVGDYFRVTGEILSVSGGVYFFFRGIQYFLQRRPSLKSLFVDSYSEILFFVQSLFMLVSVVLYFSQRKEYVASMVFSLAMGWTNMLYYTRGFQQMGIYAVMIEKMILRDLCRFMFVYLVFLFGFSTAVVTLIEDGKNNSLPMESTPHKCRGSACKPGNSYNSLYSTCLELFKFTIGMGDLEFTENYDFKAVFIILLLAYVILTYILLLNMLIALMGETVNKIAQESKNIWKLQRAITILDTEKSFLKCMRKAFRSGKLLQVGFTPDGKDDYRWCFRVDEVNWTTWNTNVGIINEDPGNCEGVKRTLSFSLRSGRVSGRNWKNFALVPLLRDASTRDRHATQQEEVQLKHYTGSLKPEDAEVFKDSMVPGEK

For one assay, the target named is T1, VR1 (Rattus norvegicus, UniProt O35433). In words: Calcium imaging assay: inhibition of capsaicin induced calcium influx in DRG neurons (Fura2, microscope). It counts as cell-based. The conditions noted are these: DRG neuron; concentration 300 nM; treatment time 20 sec; capsaicin 250 nM; DRG neurons. Also noted: endogenous in cells; host or cells: DRG neurons. As to the method:
VR1 protein is a heat-gated cation channel that […] resulting in neuronal membrane depolarization and elevated intracellular calcium levels. Therefore the functional activity of compounds at the VR1 receptor may be determined by measuring changes in intracellular calcium levels in neurons such as the dorsal root ganglion.
DRG neurons were grown on PDL coated 96-well black-walled plates, in the presence of DMEM medium containing 5% Penstrep, 5% Glutamax, 200 μg/ml hygromycin, 5 μg/ml blasticide and 10% heat inactivated FBS. Prior to assay, cells were loaded with 5 μg/ml Fura2 in normal saline solution at 37° C for 40 minutes. Cells were then washed with normal saline to remove dye before commencement of the experiment.
The plated neurons were transferred into a chamber on the stage of a Nikon eclipse TE300 microscope after which neurons were allowed to attain a stable fluorescence for about 10 minutes before beginning the experiment. The assay consists of two stages, a pretreatment phase followed by a treatment phase. First, a solution of the test compound was added from a multivalve perfusion system to the cells for 1 minute (pretreatment). Immediately following, capsaicin (250 nM) was added in the presence of the test compound (treatment) for a specific period between 20 and 60 seconds.
Fura2 was excited at […] to indicate relative calcium ion concentration. Changes in wavelength measurements were made throughout the course of the experiment. The fluorescence ratio was calculated by dividing fluorescence measured at 340 nm by that at 380 nM. Data was collected using Intelligent Imaging’s Slidebook software. All compounds that inhibited capsaicin induced calcium influx greater than 75% were considered positives.
Fluorescence reflecting calcium ion influx is reduced.
As for `COc1cc(NC(=O)c2ccc(/C=C/C(C)C)cc2)cc(C(F)(F)F)c1` [Compound 155], the inhibition (in general, how much of the control response was suppressed) at 0.3 µM is under 75%.

Still in this assay, the particulars now being: administered with capsaicin.
For the compound `COc1cc(NC(=O)c2ccc(/C=C/C(C)C)cc2)cc(C(F)(F)F)c1` [Compound 155], the “fluorescence reflecting calcium ion influx when administered with capsaicin (Figure 1)” value was “reduced”.

The assay is the same for the next values; noted with them: capsaicin stimulation; class symbols per legend.
`O=C(Nc1cccc(C(F)(F)F)c1)c1ccc(/C=C/C(F)(F)F)cc1` [Compound 398]: the “inhibition of calcium ion influx induced by capsaicin stimulation” value (“inhibition of calcium ion influx induced” for short) is given as “++++ (compound exhibited 75% or greater inhibition of calcium ion influx induced by capsaicin stimulation)”. As to `O=C(Nc1ccc(OC(F)(F)F)cc1)c1ccc(/C=C/C(F)(F)F)cc1` [Compound 399], the “inhibition of calcium ion influx induced” value is “++++ (compound exhibited 75% or greater inhibition of calcium ion influx induced by capsaicin stimulation)”. For the compound `COc1ccc(NC(=O)c2ccc(/C=C/C(F)(F)F)cc2)cn1` [Compound 406], the “inhibition of calcium ion influx induced” value is listed as “++ (compound exhibited 25-50% inhibition of calcium ion influx induced by capsaicin stimulation)”. On to `CC(C)(C)C#Cc1ccc(C(=O)Nc2cccc(S(C)(=O)=O)c2)cn1` [Compound 411], for which the “inhibition of calcium ion influx induced” value is “++++ (compound exhibited 75% or greater inhibition of calcium ion influx induced by capsaicin stimulation)”.

Regarding `CC(C)(C)C#Cc1ccc(C(=O)Nc2cccc(S(C)(=O)=O)c2)cc1` [Compound 412], the “inhibition of calcium ion influx induced” value is recorded as “++++ (compound exhibited 75% or greater inhibition of calcium ion influx induced by capsaicin stimulation)”. With `CCN(CC)CCOC(=O)c1ccc(NC(=O)c2ccc(C#CC(C)(C)C)nc2)cc1` [Compound 413], the “inhibition of calcium ion influx induced” value was “+ (compound exhibited 0-25% inhibition of calcium ion influx induced by capsaicin stimulation)”. Turning to `COc1cccc(NC(=O)c2ccc(C#CC(C)(C)C)nc2)c1` [Compound 414], the “inhibition of calcium ion influx induced” value is reported as “++++ (compound exhibited 75% or greater inhibition of calcium ion influx induced by capsaicin stimulation)”. Regarding `COc1ccc(NC(=O)c2ccc(C#CC(C)(C)C)nc2)cc1Cl` [Compound 416], the “inhibition of calcium ion influx induced” value is on record as “++ (compound exhibited 25-50% inhibition of calcium ion influx induced by capsaicin stimulation)”. Still for that read-out and setting: to `CC(C)(C)C#Cc1ccc(C(=O)Nc2ccc(C(F)(F)F)cc2)cn1` [Compound 417] belongs “++++ (compound exhibited 75% or greater inhibition of calcium ion influx induced by capsaicin stimulation)”; to `CC(C)(C)C#Cc1ccc(C(=O)Nc2ccc(Cl)c(C(F)(F)F)c2)cn1` [Compound 418], “++++ (compound exhibited 75% or greater inhibition of calcium ion influx induced by capsaicin stimulation)”; to `CC(C)(C)C#Cc1ccc(C(=O)Nc2ccc(C(C)(C)C)cc2)cn1` [Compound 419], “++++ (compound exhibited 75% or greater inhibition of calcium ion influx induced by capsaicin stimulation)”. For the compound `CC(C)c1ccc(NC(=O)c2ccc(C#CC(C)(C)C)nc2)cc1` [Compound 420], the “inhibition of calcium ion influx induced” value is “+++ (compound exhibited 50-75% inhibition of calcium ion influx induced by capsaicin stimulation)”. Consider `CCCCc1ccc(NC(=O)c2ccc(C#CC(C)(C)C)nc2)cc1` [Compound 421], for which the “inhibition of calcium ion influx induced” value is “++ (compound exhibited 25-50% inhibition of calcium ion influx induced by capsaicin stimulation)”.

Consider `COc1cc(NC(=O)c2ccc(C#CC(C)(C)C)nc2)cc(C(F)(F)F)c1` [Compound 422], for which the “inhibition of calcium ion influx induced” value is given as “++++ (compound exhibited 75% or greater inhibition of calcium ion influx induced by capsaicin stimulation)”. Take `CC(C)(C)C#Cc1ccc(C(=O)Nc2ccc3c(c2)OCCO3)cn1` [Compound 423]: the “inhibition of calcium ion influx induced” value is “++++ (compound exhibited 75% or greater inhibition of calcium ion influx induced by capsaicin stimulation)”. With `CC(C)(C)C#Cc1ccc(C(=O)Nc2cccc(C(F)(F)F)c2)cn1` [Compound 424], the “inhibition of calcium ion influx induced” value is listed as “+++ (compound exhibited 50-75% inhibition of calcium ion influx induced by capsaicin stimulation)”. Take `CC(C)(C)C#Cc1ccc(C(=O)Nc2ccc(OC(F)(F)F)cc2)cn1` [Compound 425]: the “inhibition of calcium ion influx induced” value was “+ (compound exhibited 0-25% inhibition of calcium ion influx induced by capsaicin stimulation)”.

`CC(C)(C)C#Cc1ccc(C(=O)Nc2ccc(S(C)(=O)=O)cc2)cn1` [Compound 427]: the “inhibition of calcium ion influx induced” value is on record as “++ (compound exhibited 25-50% inhibition of calcium ion influx induced by capsaicin stimulation)”. On to `CC(C)(C)C#Cc1ccc(C(=O)Nc2cccc3cnccc23)cn1` [Compound 428], for which the “inhibition of calcium ion influx induced” value is on record as “++++ (compound exhibited 75% or greater inhibition of calcium ion influx induced by capsaicin stimulation)”. Consider `CC(C)(C)C#Cc1ccc(C(=O)Nc2cnc3ccccc3c2)cn1` [Compound 429], for which the “inhibition of calcium ion influx induced” value is on record as “++++ (compound exhibited 75% or greater inhibition of calcium ion influx induced by capsaicin stimulation)”. The same measure, in the same setting: to `CCN(CC)c1ccc(NC(=O)c2ccc(C#CC(C)(C)C)nc2)cc1` [Compound 430] belongs “+ (compound exhibited 0-25% inhibition of calcium ion influx induced by capsaicin stimulation)”; to `Cc1ccc(NC(=O)c2ccc(C#CC(C)(C)C)nc2)nc1` [Compound 432], “+ (compound exhibited 0-25% inhibition of calcium ion influx induced by capsaicin stimulation)”.

On to `CC(C)(C)C#Cc1ccc(C(=O)Nc2ccc(C(F)(F)F)cn2)cn1` [Compound 433], for which the “inhibition of calcium ion influx induced” value is listed as “++ (compound exhibited 25-50% inhibition of calcium ion influx induced by capsaicin stimulation)”.

Regarding `CC(C)(C)C#Cc1ccc(C(=O)Nc2ccc(Cl)nc2)cn1` [Compound 434], the “inhibition of calcium ion influx induced” value was “+ (compound exhibited 0-25% inhibition of calcium ion influx induced by capsaicin stimulation)”. As for `COc1ccc(NC(=O)c2ccc(C#CC(C)(C)C)nc2)cn1` [Compound 435], the “inhibition of calcium ion influx induced” value was “+ (compound exhibited 0-25% inhibition of calcium ion influx induced by capsaicin stimulation)”. In the case of `Cn1ccc2cc(NC(=O)c3ccc(C#CC(C)(C)C)nc3)ccc21` [Compound 437], the “inhibition of calcium ion influx induced” value is recorded as “++++ (compound exhibited 75% or greater inhibition of calcium ion influx induced by capsaicin stimulation)”. As for `CC(C)(C)C#Cc1ccc(C(=O)Nc2ccc3c(c2)OCO3)cn1` [Compound 438], the “inhibition of calcium ion influx induced” value is given as “++++ (compound exhibited 75% or greater inhibition of calcium ion influx induced by capsaicin stimulation)”.

For a further assay, the target named is T1, VR1. Kind of assay: Whole-cell patch clamp electrophysiology: inhibition of capsaicin induced current in DRG neurons. Format: cell-based, rats. The conditions noted are these: DRG neuron; concentration 100 nM; treatment time 20 seconds; 500nM capsaicin; held at -80mV; DRG neurons. Details: Dorsal root ganglion (DRG) neurons were recovered from either neonatal or adult rats; endogenous in cells; host or cells: primary rat dorsal root ganglion neurons. The text has this: Whole-cell patch clamp electrophysiology
Dorsal root ganglion (DRG) neurons were recovered from either neonatal or adult rats and plated onto poly-D-lysine coated glass coverslips. The plated neurons were transferred into a chamber to allow drug solutions to be added to the cells using a computer-controlled solenoid-valve based perfusion system. The cells were imaged using standard DIC optics. Cells were patched using finely-pulled glass electrodes. Voltage-clamp electrophysiology experiments were carried out using an Axon Instruments Multiclamp amplified controlled by pCLAMP8 software.
The cells were placed into a whole-cell voltage clamp and held at a voltage of –80mV while monitoring the membrane current in gap-free recording mode.
500nM capsaicin was added for 30 seconds as a control. Test compounds at various concentrations were added to the cells for 1 minute prior to a 30 second capsaicin application. Differences between control experiments and drug positive capsaicin experiments were used to determine the efficacy of each test compound. All compounds that inhibited capsaicin induced current greater than 50% were considered positives.
For orientation: The patch-clamp technique gives a direct electrical read-out from membranes.
For the compound `COc1cc(NC(=O)c2ccc(/C=C/C(C)C)cc2)cc(C(F)(F)F)c1` [Compound 155], testing at 0.1 µM gave an inhibition of 50%.

Still in this assay, the particulars now being: same neurons, capsaicin alone as comparison.
Take `COc1cc(NC(=O)c2ccc(/C=C/C(C)C)cc2)cc(C(F)(F)F)c1` [Compound 155]: the “calcium influx in neurons, capsaicin in presence of compound vs capsaicin alone (Figure 2)” value was “less calcium influx”.
